Legend:
[1] = Water solubility of UV protection dyes
[2] = Photo stabilisation study of COMPOUND (V) in gelatine microcapsules exposed to daylight, HPLC assay; assay type: physicochemical
Method: The HPLC system was from Waters comprising of two 510 pumps, a 717 plus Autosampler, a System Interface Module, a Lambda-Max 480 detector and Millennium Chromatography Manager software. Chromatography was achieved on a Zorbax ODS 5 μm C18 analytical column of dimension 4.6×250 mm internal diameter maintained at 35° C. Mobile phases were unmodified water (Milli-Q grade) in reservoir A and unmodified acetonitrile in reservoir B. Linear gradient elution was used with 70 to 90% B over the first 10 minutes, then 100% B for 3 minutes and returning to 70% B over 4 minutes. Injection cycle time was 20 minutes with a flow rate of 2 ml/min. The samples were either dissolved in acetonitrile or diethyl ether and 10 μl volume injected on to the column which was maintained at 35° C. Prior to use, mobile phase were degassed under vacuum with sonication and continuously sparged with helium. The naphthoquinones were detected by measurement of UV absorbance at 269 nm.
A batch of gelatine microcapsules containing 300 mg of COMPOUND (V) in 15 ml of Exxsol® D100 was produced.
The capsule slurry was washed repeatedly with water to remove debris and filtered to obtain a wet cake. An aliquot of the wet cake (11.3 g) was made up to 50 ml and dyed brown with Chocolate Brown (500 mg, equivalent to 10 mg/ml solution). Aliquots (200 μl) of microcapsule slurry of brown and undyed capsules were applied to glass microscope slides in duplicate. The slurry from each batch was spread to form a monolayer of microcapsules on each slide. The slides were air dried in a dark at room temperature (≅21° C.) and exposed to daylight on a south-facing windowsill for various time periods. Two slides from each batch were analysed per time point post of exposure. Unexposed slides stored in the dark were used as time zero reference.
The contents of the capsules were extracted by rupturing the capsules, by rolling a glass rod on the slides, and washing both the rod and the slide with diethyl ether. The extracts were made up to 10 ml and assayed by HPLC.

For CC1=NN(c2ccc(S(=O)(=O)[O-])cc2)C(=O)C1N=Nc1ccc(-c2ccc(N=Nc3ccc(OS(=O)(=O)c4ccc(C)cc4)cc3)c(S(=O)(=O)[O-])c2)cc1.[Na+].[Na+] (stereo not shown) [Acid Orange 63], the “WATER SOLUBILITY” value [1] was 50 mg/mL.

With Cc1nn(-c2ccccc2)c([O-])c1N=Nc1cc([N+](=O)[O-])cc(S(=O)(=O)[O-])c1[O-].[Cr+3].[Na+].[OH-] [Acid Orange 74] the “WATER SOLUBILITY” value [1] was 20 mg/mL.

For Cc1cc(N=Nc2ccc(C)c(N=Nc3cc(C)c(N)cc3N)c2)c(N)cc1N [Bismark Brown R], the “WATER SOLUBILITY” value [1] was 70 mg/mL.

With Nc1ccc(N=Nc2cccc(N=Nc3ccc(N)cc3N)c2)c(N)c1 [Bismark Brown Y] the “WATER SOLUBILITY” value [1] was 50 mg/mL.

In the case of CC(=O)OC1=C(C(C)CCC[Si](C)(C)C)C(=O)c2ccccc2C1=O (stereo not shown) [COMPOUND (V)], the “amount of COMPOUND (V) remaining, % of the initial amount” value ([2]; Chocolate Brown dyed gelatine capsules, 88 hours exposure to daylight (8 hours daylight over 11 days)) is reported as about 80%, the “amount of COMPOUND (V) remaining, % of the initial amount” value ([2]; undyed impervious gelatine capsules, 6 hours exposure to daylight) is reported as 60% and the “amount of COMPOUND (V) remaining, % of the initial amount” value ([2]; undyed impervious gelatine capsules, 16 hours exposure to daylight) is reported as 23%. For the same molecule, the “amount of COMPOUND (V) remaining, % of the initial amount” value ([2]; undyed impervious gelatine capsules, 40 hours exposure to daylight (8 hours daylight over 5 days)) was 6%.

In the case of O=S1(=O)OC(c2ccc(O)c(Cl)c2)(c2ccc(O)c(Cl)c2)c2ccccc21 [Chlorophenol Red], the “WATER SOLUBILITY” value [1] is reported as 60 mg/mL.

With O=S(=O)([O-])c1ccc2c(N=Nc3ccccc3)c(O)ccc2c1.[Na+] [Crocein Orange G] the “WATER SOLUBILITY” value [1] was 40 mg/mL.

For CC(=O)Nc1ccc2nc3c4ccccc4c(=N)cc-3oc2c1.Cl [Darrow Red], the “WATER SOLUBILITY” value [1] was 1 mg/mL.

In the case of CCN(CC)c1ccc(N=Nc2ccc(S(=O)(=O)[O-])cc2)cc1.[K+] [Ethyl Orange], the “WATER SOLUBILITY” value [1] is reported as 100 mg/mL.

With CCN(CC)c1ccc(N=Nc2ccccc2C(=O)O)cc1 [Ethyl Red] the “WATER SOLUBILITY” value [1] was 3 mg/mL.

For Nc1cc(N)c(N=Nc2cccc3c(S(=O)(=O)O)cccc23)cc1N=Nc1cc([N+](=O)[O-])ccc1O.[Na] [Mordant Brown 1], the “WATER SOLUBILITY” value [1] was 60 mg/mL.

For Cc1cc(N=Nc2cc([N+](=O)[O-])cc([N+](=O)[O-])c2O)c(N)cc1N [Mordant Brown 4], the “WATER SOLUBILITY” value [1] was 60 mg/mL.

For Nc1cc(N)c(S(=O)(=O)[O-])cc1N=Nc1cc([N+](=O)[O-])ccc1O.[Na+] [Mordant Brown 33], the “WATER SOLUBILITY” value [1] was 20 mg/mL.

For Nc1cc(N)c(N=Nc2cc([N+](=O)[O-])cc([N+](=O)[O-])c2O)cc1Cl [Mordant Brown 48], the “WATER SOLUBILITY” value [1] was 40 mg/mL.

With Cc1cc(O)ccc1C1(c2ccc(O)cc2C)OS(=O)(=O)c2ccccc21 [m-Cresol Purple] the “WATER SOLUBILITY” value [1] was 2 mg/mL.

For Acid Orange 51, the “WATER SOLUBILITY” value [1] was 30 mg/mL.

Reference: patent US20080318788A1, “Microcapsule” (priority 2005, published 2008)
